# Experimental data: patent US11033547B2, “Carboxamide-pyrimidine derivatives as SHP2 antagonists” (Merck Patent GmbH, priority 2019, dated 2021)
# Biological target: Full length SHP2 protein (Recombinant Human SHP-2) (Homo sapiens, UniProt Q06124)
# Assay: SHP2 biochemical assay (DiFMUP substrate, activating peptide IRSI_2pY)
# Settings: DiFMUP substrate, activating peptide IRSI_2pY, 60 min at RT; read-out: SHP-2 Biochemical assay IC50
# Procedure: The inhibition of SHP2 by compounds of the invention was monitored using the surrogate substrate DiFMUP after protein activation by a peptide bearing two appropriately spaced phosphotyrosine. […] The generation of the DiFMU product by activated SHP2 was monitored through Fluorescence measurement with a PerkinElmer Envision reader.
# The inhibitor dose response curves were analyzed with Genedata Screener.
# Chain of Full length SHP2 protein (Recombinant Human SHP-2) (Q06124 2-593 limits assumed): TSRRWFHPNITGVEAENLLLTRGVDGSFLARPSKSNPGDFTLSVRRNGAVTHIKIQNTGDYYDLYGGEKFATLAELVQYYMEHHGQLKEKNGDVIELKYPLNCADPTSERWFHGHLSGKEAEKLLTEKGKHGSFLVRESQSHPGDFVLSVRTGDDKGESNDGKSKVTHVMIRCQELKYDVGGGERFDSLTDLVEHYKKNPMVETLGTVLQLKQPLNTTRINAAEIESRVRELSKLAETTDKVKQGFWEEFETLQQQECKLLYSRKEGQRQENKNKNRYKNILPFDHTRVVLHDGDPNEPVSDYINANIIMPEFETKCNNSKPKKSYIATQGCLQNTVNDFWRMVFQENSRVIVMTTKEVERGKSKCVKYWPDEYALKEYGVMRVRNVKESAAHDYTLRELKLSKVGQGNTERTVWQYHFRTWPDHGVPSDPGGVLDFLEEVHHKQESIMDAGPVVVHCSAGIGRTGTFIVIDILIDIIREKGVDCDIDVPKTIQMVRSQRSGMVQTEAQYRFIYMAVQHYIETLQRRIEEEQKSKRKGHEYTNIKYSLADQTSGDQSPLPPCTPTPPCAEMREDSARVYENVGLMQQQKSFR
row,Compound,IC50 [µM]
1,"Cc1nc(N2CC3CCC(N)C3C2)nc(C(N)=O)c1-c1cccc(Cl)c1Cl (stereo not drawn) [Compound 42, 2-(4-Amino-hexahydro-cyclopenta[c]pyrrol-2-yl)-5-(2,3-dichloro-phenyl)-6-methyl-pyrimidine-4-carboxylic acid amide]",4.8
2,"Cc1nc(N[C@@H]2CCC[C@H](N)C2)nc(C(N)=O)c1-c1cccc(Cl)c1Cl (atropisomer, axis not shown; (P)) [Compound 89, (4P)-2-{[(1R,3S)-3-aminocyclohexyl]amino}-5-(2,3-dichlorophenyl)-6-methylpyrimidine-4-carboxamide]",13
3,"Cc1nc(N2CCC3(CC2)Oc2ncccc2[C@@H]3N)nc(C(N)=O)c1-c1cccc(Cl)c1Cl [Compound 127, (4P)-2-[(3S)-3-amino-3H-spiro[furo[2,3-b]pyridine-2,4′-piperidin]-1′-yl]-5-(2,3-dichlorophenyl)-6-methylpyrimidine-4-carboxamide]",> 10
4,"Cc1nc(N2C[C@H]3CC[C@@H](N)[C@H]3C2)nc(C(N)=O)c1-c1cccc(Cl)c1Cl [Compound 72, 2-((3aR,4R,6aS)-4-Amino-hexahydro-cyclopenta-[c]pyrrol-2-yl)-5-(2,3-dichloro-phenyl)-6-methyl-pyrimidine-4-carboxylic acid amide]",6.7
5,"C[C@]1(N)CCCN(c2nc(N)c(-c3cccc(Cl)c3Cl)c(C(N)=O)n2)CC1 (atropisomer, axis not shown; (P)) [Compound 108, (5P)-6-amino-2-[(4S)-4-amino-4-methylazepan-1-yl]-5-(2,3-dichlorophenyl)-pyrimidine-4-carboxamide]",1.3
6,"CC1(N)CCN(c2ncc(-c3cccc4[nH]cnc34)c(C(N)=O)n2)CC1 [Compound 60, 2-(4-Amino-4-methyl-piperidin-1-yl)-5-(1H-benzoimidazol-4-yl)-pyrimidine-4-carboxylic acid amide]",> 10
7,"NC(=O)c1nc(N2CCC3(CC2)CC(N)CCO3)nc(N)c1-c1cccc(Cl)c1Cl (stereo not drawn) [Compound 38, 6-amino-2-{4-amino-1-oxa-9-azaspiro[5.5]undecan-9-yl}-5-(2,3-dichlorophenyl)pyrimidine-4-carboxamide]",7.6
8,"NC[C@]12CCC[C@H]1CN(c1nc(N)c(-c3cccc(Cl)c3Cl)c(C(N)=O)n1)C2 (single isomer, unassigned) [Compound 105]",10
9,"Cc1nc(N2CC(F)(CN)C2)nc(C(N)=O)c1-c1cccc(Cl)c1Cl [Compound 44, 2-(3-Aminomethyl-3-fluoro-azetidin-1-yl)-5-(2,3-dichloro-phenyl)-6-methyl-pyrimidine-4-carboxylic acid amide]",11
10,"Cc1nc(N2C[C@H]3CCC(N)[C@@H]3C2)nc(C(N)=O)c1-c1cccc(Cl)c1Cl (stereo partly drawn) [Compound 73, 2-((3aS,6aS)-4-Amino-hexahydro-cyclopenta-[c]pyrrol-2-yl)-5-(2,3-dichloro-phenyl)-6-methyl-pyrimidine-4-carboxylic acid amide]",5.2
11,"NC(=O)c1nc(N2CCC3(CC2)Oc2ncccc2C3N)nc(N)c1-c1cccc(Cl)c1Cl (single isomer, unassigned) [Compound 128]",0.006
12,"NC(=O)c1nc(N2CC(N)C2)nc(N)c1-c1cccc(Cl)c1Cl [Compound 69, 6-amino-2-(3-aminoazetidin-1-yl)-5-(2,3-dichlorophenyl)-pyrimidine-4-carboxamide]",5.6
13,"CC1(CN)CN(c2nc(N)c(-c3cccc(Cl)c3Cl)c(C(N)=O)n2)C1 [Compound 55, 6-amino-2-[3-(aminomethyl)-3-methylazetidin-1-yl]-5-(2,3-dichlorophenyl)pyrimidine-4-carboxamide]",1.7
14,"Cc1nc(N2C3COCC2CC(N)C3)nc(C(N)=O)c1-c1cccc(Cl)c1Cl (stereo not drawn) [Compound 33, 2-(7-Amino-3-oxa-9-aza-bicyclo[3.3.1]non-9-yl)-5-(2,3-dichlorophenyl)-6-methyl-pyrimidine-4-carboxylic acid amide]",2.4
15,"NCC1CN(c2nc(N)c(-c3cccc(Cl)c3Cl)c(C(N)=O)n2)CC12COC2 (stereo not drawn) [Compound 34, 6-amino-2-[8-(aminomethyl)-2-oxa-6-azaspiro[3.4]octan-6-yl]-5-(2,3-dichloro-phenyl)pyrimidine-4-carboxamide]",1.1
16,"NC(=O)c1nc(N2CCC3(CC2)Oc2ncccc2[C@@H]3N)nc(N)c1-c1cccc(Cl)c1Cl (single isomer, unassigned) [Compound 130]",0.077
17,"NC(=O)c1nc(N2CCC(C3OCCCC3N)CC2)nc(N)c1-c1cccc(Cl)c1Cl (stereo not drawn) [Compound 39, 6-amino-2-[4-(3-aminooxan-2-yl)piperidin-1-yl]-5-(2,3-dichlorophenyl)pyrimidine-4-carboxamide]",6.3
18,"NC(=O)c1nc(N2CCC3(CC2)Cc2ccccc2[C@H]3N)nc(N)c1-c1cccc(Cl)c1Cl (single isomer, unassigned) [Compound 118]",0.041

row,Compound,IC50 [µM]
1,"Cc1nc(N2CCC(C)(N)CC2)nc(C(N)=O)c1-c1ccncc1 [Compound 86, 2-(4-Amino-4-methyl-piperidin-1-yl)-6-methyl-5-pyridin-4-yl-pyrimidine-4-carboxylic acid amide]",> 10
2,"CC1(N)CCN(c2nc(N)c(-c3cccc(F)c3)c(C(N)=O)n2)CC1 [Compound 4, 6-Amino-2-(4-amino-4-methyl-piperidin-1-yl)-5-(3-fluoro-phenyl)pyrimidine-4-carboxylic Acid Amide]",3.7
3,"Cc1nc(N2CCC2CN)nc(C(N)=O)c1-c1cccc(Cl)c1Cl (stereo not drawn) [Compound 46, 2-(2-Aminomethyl-azetidin-1-yl)-5-(2,3-dichloro-phenyl)-6-methyl-pyrimidine-4-carboxylic acid amide]",5.5
4,"Cc1nc(N2CCC3(CC2)CO[C@@H](C)[C@H]3N)nc(C(N)=O)c1-c1cccc(Cl)c1Cl (single isomer, unassigned) [Compound 94]",2.6
5,"COc1c(F)ccc(-c2c(C)nc(N3CCC(C)(N)CC3)nc2C(N)=O)c1Cl (atropisomer, axis not shown; (P)) [Compound 116, (4P)-2-(4-amino-4-methylpiperidin-1-yl)-5-(2-chloro-4-fluoro-3-methoxyphenyl)-6-methylpyrimidine-4-carboxamide]",> 10
6,"Cc1nc(N2CCC3(CCC[C@@H]3N)C2)nc(C(N)=O)c1-c1cccc(Cl)c1Cl (stereo in doubt) [Compound 37, 2-((S)-6-Amino-2-aza-spiro[4.4]non-2-yl)-5-(2,3-dichloro-phenyl)-6-methyl-pyrimidine-4-carboxylic acid amide]",1.1
7,"Cc1nc(N2CC3CN(C)CC3C2)nc(C(N)=O)c1-c1cccc(Cl)c1Cl (stereo not drawn) [Compound 56, 5-(2,3-Dichloro-phenyl)-6-methyl-2-(5-methyl-hexahydro-pyrrolo[3,4-c]pyrrol-2-yl)-pyrimidine-4-carboxylic acid amide]",0.96
8,"NC(=O)c1nc(N2CC3CCCC(N)C3C2)nc(N)c1-c1cccc(Cl)c1Cl (stereo not drawn) [Compound 50, 6-amino-2-(4-amino-octahydro-1H-isoindol-2-yl)-5-(2,3-dichlorophenyl)pyrimidine-4-carboxamide]",10
9,"NC(=O)c1nc(N2CCC3(CC2)Oc2ncccc2[C@@H]3N)nc(N)c1-c1cccc(Cl)c1Cl (single isomer, unassigned) [Compound 131]",7
10,"Cc1nc(N2CCC(C)(N)CC2)nc(C(N)=O)c1-c1cnccc1Cl [Compound 83, 2-(4-Amino-4-methyl-piperidin-1-yl)-5-(4-chloro-pyridin-3-yl)-6-methyl-pyrimidine-4-carboxylic acid amide]",14
11,"NCC1CCN1c1nc(N)c(-c2cccc(Cl)c2Cl)c(C(N)=O)n1 (stereo not drawn) [Compound 71, 6-amino-2-[2-(aminomethyl)-azetidin-1-yl]-5-(2,3-dichlorophenyl)pyrimidine-4-carboxamide]",1.3
12,"Cc1nc(N2C[C@@H]3CC[C@@H](N)[C@@H]3C2)nc(C(N)=O)c1-c1cccc(Cl)c1Cl [Compound 75, 2-((3aS,4R,6aR)-4-Amino-hexahydro-cyclopenta[c]pyrrol-2-yl)-5-(2,3-dichloro-phenyl)-6-methyl-pyrimidine-4-carboxylic acid amide]",2.1
13,"NC[C@]12CCCC[C@H]1CN(c1nc(N)c(-c3cccc(Cl)c3Cl)c(C(N)=O)n1)C2 (single isomer, unassigned) [Compound 103]",5.6
14,"Cc1nc(N2CCC3(CC3N)C2)nc(C(N)=O)c1-c1cccc(Cl)c1Cl (stereo not drawn) [Compound 58, 2-(1-Amino-5-aza-spiro[2.4]hept-5-yl)-5-(2,3-dichloro-phenyl)-6-methyl-pyrimidine-4-carboxylic acid amide]",4.4
15,"CC1(N)CCN(c2nc(N)c(-c3ccc4cn[nH]c4c3Cl)c(C(N)=O)n2)CC1 [Compound 62, 6-Amino-2-(4-amino-4-methyl-piperidin-1-yl)-5-(7-chloro-1H-indazol-6-yl)-pyrimidine-4-carboxylic acid amide]",> 10
16,"NCC1CC2CCC(C1)N2c1nc(N)c(-c2cccc(Cl)c2Cl)c(C(N)=O)n1 (stereo not drawn) [Compound 12, 6-amino-2-[3-(aminomethyl)-8-azabicyclo[3.2.1]octan-8-yl]-5-(2,3-dichlorophenyl)pyrimidine-4-carboxamide]",1.6
17,"NCC1(O)CN(c2nc(N)c(-c3cccc(Cl)c3Cl)c(C(N)=O)n2)C1 [Compound 54, 6-amino-2-[3-(aminomethyl)-3-hydroxyazetidin-1-yl]-5-(2,3-dichlorophenyl)-pyrimidine-4-carboxamide]",7.7
18,"C[C@]1(N)CCCN(c2nc(N)c(-c3cccc(Cl)c3Cl)c(C(N)=O)n2)CC1 (atropisomer, axis not shown; (M)) [Compound 110, (5M)-6-amino-2-[(4S)-4-amino-4-methylazepan-1-yl]-5-(2,3-dichlorophenyl)-pyrimidine-4-carboxamide]",4.4
